Reference: ChEMBL document CHEMBL1201862, “PubChem BioAssay data set” (2004)
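Exposure lasted 48 hours, with cells grown in 96-well plates and compounds tested at five concentrations. GI50 is the concentration that inhibits growth by half.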 Active and inactive are the calls of the source. Cut-off read from the data, not from the text of the source: active = GI50 up to about 1.1 µM and inactive = higher.

Assays:
Experiment in all cases: DTP human tumour cell line panel, 48 h
HOP-18 = system: HOP-18
Malme-3M = system: Malme-3M
NCI-H460 = system: NCI-H460
CAKI-1 = system: CAKI-1
OVCAR-3 = system: OVCAR-3
A498 = system: A498
MOLT-4 = system: MOLT-4
OVCAR-5 = system: OVCAR-5
SK-MEL-2 = system: SK-MEL-2
LXFL 529 = system: LXFL 529
EKVX = system: EKVX
IGROV-1 = system: IGROV-1
SK-MEL-5 = system: SK-MEL-5
COLO 205 = system: COLO 205
OVCAR-8 = system: OVCAR-8
NCI-H226 = system: NCI-H226
LOX IMVI = system: LOX IMVI
SF-295 = system: SF-295
SK-MEL-28 = system: SK-MEL-28
SK-OV-3 = system: SK-OV-3
HT-29 = system: HT-29
KM12 = system: KM12
HCC 2998 = system: HCC 2998
HCT-15 = system: HCT-15
NCI-H522 = system: NCI-H522
UO-31 = system: UO-31
SW-620 = system: SW-620
A549 = system: A549
RXF 393 = system: RXF 393
UACC-62 = system: UACC-62
M19-MEL = system: M19-MEL
OVCAR-4 = system: OVCAR-4
DLD-1 = system: DLD-1
HOP-92 = system: HOP-92
HCT-116 = system: HCT-116
SF-268 = system: SF-268
NCI-H23 = system: NCI-H23
M14 = system: M14
CCRF-CEM = system: CCRF-CEM
HOP-62 = system: HOP-62
TK-10 = system: TK-10
DMS-273 = system: DMS-273
SN12C = system: SN12C
KM-20L2 = system: KM-20L2
U-251 = system: U-251
DMS-114 = system: DMS-114
RXF 631 = system: RXF 631
SF-539 = system: SF-539
SNB-75 = system: SNB-75
UACC-257 = system: UACC-257
K562 = system: K562
SNB-78 = system: SNB-78
ACHN = system: ACHN
786-0 = system: 786-0
HL-60 = system: HL-60
SNB-19 = system: SNB-19
XF498 = system: XF498
RPMI-8226 = system: RPMI-8226

In the case of `Cc1cc(=O)n(-c2ccccc2C)c(C)n1`, the GI50 (HOP-18) is reported as > 100 µM (inactive), the GI50 (Malme-3M) is reported as > 100 µM (inactive) and the GI50 (NCI-H460) is reported as > 100 µM (inactive). The GI50 (CAKI-1) was > 100 µM (inactive), the GI50 (OVCAR-3) was > 100 µM (inactive) and the GI50 (A498) was > 100 µM (inactive). The GI50 (MOLT-4) was > 100 µM (inactive), the GI50 (OVCAR-5) was > 100 µM (inactive) and the GI50 (SK-MEL-2) was > 100 µM (inactive). For the same molecule, the GI50 (LXFL 529) was > 100 µM (inactive), the GI50 (EKVX) was > 100 µM (inactive) and the GI50 (IGROV-1) was > 100 µM (inactive). For the same molecule, the GI50 (SK-MEL-5) was > 100 µM (inactive), the GI50 (COLO 205) was > 100 µM (inactive) and the GI50 (OVCAR-8) was > 100 µM (inactive). For the same molecule, the GI50 (NCI-H226) was > 100 µM (inactive), the GI50 (LOX IMVI) was > 100 µM (inactive) and the GI50 (SF-295) was > 100 µM (inactive). For the same molecule, the GI50 (SK-MEL-28) was > 100 µM (inactive), the GI50 (SK-OV-3) was > 100 µM (inactive) and the GI50 (HT-29) was > 100 µM (inactive). The GI50 (KM12) was > 100 µM (inactive), the GI50 (HCC 2998) was > 100 µM (inactive) and the GI50 (HCT-15) was greater than 100 µM. The GI50 (NCI-H522) was > 100 µM (inactive), the GI50 (UO-31) was > 100 µM (inactive) and the GI50 (SW-620) was > 100 µM (inactive). The GI50 (A549) was > 100 µM (inactive), the GI50 (RXF 393) was > 100 µM (inactive) and the GI50 (UACC-62) was > 100 µM (inactive). The GI50 (M19-MEL) was > 100 µM (inactive), the GI50 (OVCAR-4) was > 100 µM (inactive) and the GI50 (DLD-1) was > 100 µM (inactive). For the same molecule, the GI50 (HOP-92) was > 100 µM (inactive), the GI50 (HCT-116) was > 100 µM (inactive) and the GI50 (SF-268) was > 100 µM (inactive). For the same molecule, the GI50 (NCI-H23) was > 100 µM (inactive), the GI50 (M14) was > 100 µM (inactive) and the GI50 (CCRF-CEM) was > 100 µM (inactive). The GI50 (HOP-62) was > 100 µM (inactive), the GI50 (TK-10) was > 100 µM (inactive) and the GI50 (DMS-273) was > 100 µM (inactive). For the same molecule, the GI50 (SN12C) was > 100 µM (inactive), the GI50 (KM-20L2) was > 100 µM (inactive) and the GI50 (U-251) was > 100 µM (inactive). For the same molecule, the GI50 (DMS-114) was > 100 µM (inactive), the GI50 (RXF 631) was > 100 µM (inactive) and the GI50 (SF-539) was > 100 µM (inactive). For the same molecule, the GI50 (SNB-75) was > 100 µM (inactive), the GI50 (UACC-257) was > 100 µM (inactive) and the GI50 (K562) was > 100 µM (inactive). The GI50 (SNB-78) was > 100 µM (inactive), the GI50 (ACHN) was > 100 µM (inactive) and the GI50 (786-0) was > 100 µM (inactive). For the same molecule, the GI50 (HL-60) was > 100 µM (inactive) and the GI50 (SNB-19) was > 100 µM (inactive).

For `CC(=O)NC1=C(N)C(=O)c2ccccc2C1=O`, the GI50 (HOP-18) was > 100 µM (inactive), the GI50 (Malme-3M) was 21.3 µM (inactive) and the GI50 (NCI-H460) was 20 µM (inactive). The GI50 (CAKI-1) was > 100 µM (inactive), the GI50 (OVCAR-3) was 20.2 µM (inactive) and the GI50 (A498) was > 100 µM (inactive). For the same molecule, the GI50 (MOLT-4) was > 100 µM (inactive), the GI50 (OVCAR-5) was > 100 µM (inactive) and the GI50 (SK-MEL-2) was 90.6 µM (inactive). For the same molecule, the GI50 (LXFL 529) was 45 µM (inactive), the GI50 (EKVX) was > 100 µM (inactive) and the GI50 (IGROV-1) was > 100 µM (inactive). For the same molecule, the GI50 (SK-MEL-5) was 30.6 µM (inactive), the GI50 (COLO 205) was 30.5 µM (inactive) and the GI50 (OVCAR-8) was > 100 µM (inactive). The GI50 (LOX IMVI) was 15.3 µM (inactive), the GI50 (SF-295) was > 100 µM (inactive) and the GI50 (SK-OV-3) was > 100 µM (inactive). For the same molecule, the GI50 (HT-29) was 65.8 µM (inactive), the GI50 (KM12) was > 100 µM (inactive) and the GI50 (HCC 2998) was > 100 µM (inactive). The GI50 (HCT-15) was 47.6 µM, the GI50 (NCI-H522) was 79.4 µM (inactive) and the GI50 (UO-31) was > 100 µM (inactive). The GI50 (SW-620) was 14.9 µM (inactive), the GI50 (A549) was 44.4 µM (inactive) and the GI50 (RXF 393) was 46.9 µM (inactive). The GI50 (UACC-62) was 49.8 µM (inactive), the GI50 (M19-MEL) was 19.4 µM (inactive) and the GI50 (DLD-1) was 31.4 µM (inactive). The GI50 (XF498) was > 100 µM (inactive), the GI50 (RPMI-8226) was 60 µM (inactive) and the GI50 (HOP-92) was > 100 µM (inactive). For the same molecule, the GI50 (HCT-116) was 17.7 µM (inactive), the GI50 (SF-268) was 37.8 µM (inactive) and the GI50 (NCI-H23) was 59.2 µM (inactive). For the same molecule, the GI50 (M14) was 43.6 µM (inactive), the GI50 (CCRF-CEM) was 47.1 µM (inactive) and the GI50 (HOP-62) was > 100 µM (inactive). The GI50 (TK-10) was > 100 µM (inactive), the GI50 (DMS-273) was > 100 µM (inactive) and the GI50 (SN12C) was 54.7 µM (inactive). The GI50 (KM-20L2) was 87.5 µM (inactive), the GI50 (U-251) was 56.5 µM (inactive) and the GI50 (DMS-114) was 14.8 µM (inactive). For the same molecule, the GI50 (RXF 631) was > 100 µM (inactive), the GI50 (SF-539) was > 100 µM (inactive) and the GI50 (SNB-75) was > 100 µM (inactive). The GI50 (UACC-257) was > 100 µM (inactive), the GI50 (K562) was 57.5 µM (inactive) and the GI50 (SNB-78) was > 100 µM (inactive). The GI50 (ACHN) was > 100 µM (inactive), the GI50 (786-0) was 37.7 µM (inactive) and the GI50 (HL-60) was 27.1 µM (inactive). The GI50 (SNB-19) was > 100 µM (inactive).
